According to patent publication US4633014A, “Substituted 3-hydrazinopropionates” (priority 1983, dated 1986):
Where a name gives a salt, the structure may show the parent alone.

Tests used:
[1] = tested on: arrhythmia induced by an intravenous administration of calcium chloride; assay: Antiarrhythmic activity on a model of arrhythmia induced by intravenous calcium chloride (antagonism to calcium) in mice; type: in vivo; details: white mice, 20-40 minutes before
Procedure, shortened: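 Urethane-anaesthetised (1,200 mg/kg i.p.) white mice of both sexes, 18-25 g, with lead II ECG; 2% CaCl2 infused into the tail vein at 0.01 ml per 2 sec. Doses of CaCl2 producing arrhythmia and heart arrest were determined. Test compounds were given i.p. 20-40 min before infusion.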

in vivo = details: mouse, in vivo, ip
Procedure, shortened: (§1)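 Acute toxicity in white mice of 20-25 g, with compounds given intraperitoneally as aqueous solutions or Twin-80 suspensions. Animals observed for 10 days.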

white mice = assay: in vivo
Procedure, shortened: as §1

[2] = currently employed in medicine; cited from earlier work
[3] = white mice, intraperitoneal, relative to quinidine

Row | Structure (SMILES) | Dose of calcium chloride causing arrythmia in animals under experiment ([1]; intraperitoneal dose 5 mg/kg) | Dose of calcium chloride causing death in animals under experiment ([1]; intraperitoneal dose 5 mg/kg) | Dose of calcium chloride causing arrythmia in animals under experiment ([1]; intraperitoneal dose 15 mg/kg) | Dose of calcium chloride causing death in animals under experiment ([1]; intraperitoneal dose 15 mg/kg) | LD50 at 240 h (in vivo) [mg/kg] | Relative toxisity to quinidine (white mice; mouse, in vivo, ip, 14400 min) | Relative toxisity to quinidine (white mice; [3]) | Dose of calcium chloride causing arrythmia in animals under experiment ([1]; intraperitoneal dose 10 mg/kg) | Dose of calcium chloride causing death in animals under experiment ([1]; intraperitoneal dose 10 mg/kg) | Dose of calcium chloride causing arrythmia in animals under experiment ([1]; intraperitoneal dose 30 mg/kg) | Dose of calcium chloride causing death in animals under experiment ([1]; intraperitoneal dose 30 mg/kg) | acute toxicity (in words, background) [2] | Dose of calcium chloride causing arrythmia in animals under experiment ([1]; intraperitoneal dose 3 mg/kg) | Dose of calcium chloride causing death in animals under experiment ([1]; intraperitoneal dose 3 mg/kg)
1 | CN(C)N(CCC(N)=O)C(=O)c1ccccc1 [I-51, 3-(2,2-dimethyl-1-benzoylhydrazino)propionamide] | 88,7 mg/kg | 105,5 mg/kg | 93,5 mg/kg | 112,0 mg/kg | 3150 | 20,1 | – | – | – | – | – | – | – | –
2 | CN(C)N(CCC(N)=O)C(=O)CCO [I-52, 3-(2,2-dimethyl-1-γ-hydroxypropanoylhydrazino)propionamide] | 93 mg/kg | 112,0 mg/kg | 97,6 mg/kg | 123,6 mg/kg | > 3000 | > 19,2 | – | – | – | – | – | – | – | –
3 | COC(=O)N(CCC(N)=O)N(C)C [I-53, 3-(2,2-dimethyl-1methoxycarbonylhydrazino)propionamide] | 98,5 mg/kg | 132,0 mg/kg | 121,0 mg/kg | 138,5 mg/kg | 1880 | – | 12,0 | – | – | – | – | – | – | –
4 | CN(C)N(CCC#N)C(=O)c1ccccc1 [I-54, 3-(2,2-dimethyl-1-benzoylhydrazino)propionitrile] | 108,3 mg/kg | 130,0 mg/kg | 102,5 mg/kg | 133,0 mg/kg | 1030 | 6,6 | – | – | – | – | – | – | – | –
5 | CNC(=O)N(C(CC(=O)OC)C(=O)OC)N(C)C (stereo not shown) [I-55] | 88,7 mg/kg | 112,5 mg/kg | 111,5 mg/kg | 135,0 mg/kg | 2300 | 14,7 | – | – | – | – | – | – | – | –
6 | COC(=O)CC(C(=O)OC)N(C(=O)Nc1ccccc1)N(C)C (stereo not shown) [I-56] | 92,4 mg/kg | 108,5 mg/kg | 102,0 mg/kg | 128,0 mg/kg | 3200 | 20,5 | – | – | – | – | – | – | – | –
7 | COC(=O)CC(C(=O)OC)N(C(=O)NCCCCCCNC(=O)N(C(CC(=O)OC)C(=O)OC)N(C)C)N(C)C (stereo not shown) [I-57, 3-(2,2-dimethyl-1-/ε-(2-dimethylamino-2-dimethylsuccinato-2'-ylureido-1-yl)hexylcarbamoyl/hydrazino)-2-methoxycarbonylmethylpropionate] | 103,5 mg/kg | 115,0 mg/kg | 132,6 mg/kg | 150,0 mg/kg | > 3000 | > 19,2 | – | – | – | – | – | – | – | –
8 | COC(=O)CC(C(=O)OC)N(C(=O)c1ccccc1)N(C)C (stereo not shown) [I-58, 3-(2,2-dimethyl-1-benzoylhydrazino)-3-methoxycarbonyl-methylpropionate] | 97,0 mg/kg | 112,0 mg/kg | 100,5 mg/kg | 118,5 mg/kg | > 3000 | > 19,2 | – | – | – | – | – | – | – | –
9 | CNC(=S)N(CCC(=O)O)N(C)C [I-59, Sodium salt of 3-(2,2-dimethyl-1-methylthiocarbamoylhydrazino)propionate] | 93,4 mg/kg | 108,6 mg/kg | 112,5 mg/kg | 130,0 mg/kg | 1800 | 11,5 | – | – | – | – | – | – | – | –
10 | CCCCCCCCOC(=O)CCN(C(=S)Nc1ccccc1)N(C)C [I-60, 3-(2,2-dimethyl-1-phenylthiocarbamoylhydrazino)octylpropionate] | 90,8 mg/kg | 132,5 mg/kg | 107,5 mg/kg | 130,8 mg/kg | 2420 | 15,5 | – | – | – | – | – | – | – | –
11 | CN(C)N(CCC#N)C(=O)Nc1ccccc1 [I-61, 3-(2,2-dimethyl-1-phenylcarbamoylhydrazino)propionitrile] | 105,0 mg/kg | 128,8 mg/kg | 102,6 mg/kg | 130,0 mg/kg | 1250 | 8,0 | – | – | – | – | – | – | – | –
12 | CCC(=O)N(CCC#N)N(C)C [I-62, 3-(2,2-dimethyl-1-propionylhydrazino)-propionitrile] | 96,5 mg/kg | 120,5 mg/kg | 98,7 mg/kg | 118,5 mg/kg | 930 | – | 5,9 | – | – | – | – | – | – | –
13 | CN(C)N(CCC#N)C(=O)c1ccccc1F [I-63, 3-(2,2-dimethyl-1-2'-fluorobenzoylhydrazino)propionitrile] | 101,5 mg/kg | 117,3 mg/kg | 112,3 mg/kg | 128,0 mg/kg | 1850 | 11,8 | – | – | – | – | – | – | – | –
14 | CN(C)N(CCC(=O)O)C(=O)Nc1ccccc1 [I-64, Potassium salt of 3-(2,2-dimethyl-1-phenylcarbamoylhydrazino)-methylpropionate] | 98 mg/kg | 147 mg/kg | 141,7 mg/kg | 163 mg/kg | 1750 | 11,2 | – | – | – | – | – | – | – | –
15 | CCN(CC)CCNC(=O)c1ccc(N)cc1 [Procaineamide, procaine amide, reference compound] | – | – | – | – | 290 | – | – | 116,0 mg/kg | 120,0 mg/kg | 127,0 mg/kg | 138,0 mg/kg | high acute toxicity | – | –
16 | C=C[C@H]1C[N@@]2CC[C@H]1C[C@@H]2[C@@H](O)c1ccnc2ccc(OC)cc12 [Quinidine, quinidine, reference compound] | – | – | – | – | 156 | – | 1 | 120,8 mg/kg | 133,5 mg/kg | – | – | high acute toxicity | 126,9 mg/kg | 136,0 mg/kg
